Results published in PMC3866251, “The Sodium/Proline Transporter PutP of Helicobacter pylori” (PLoS ONE, 2013).

Molecular target: T1, HpPutP (Helicobacter pylori, UniProt B6JPE8)
T1 construct: gene putP; full-length, C-terminal 6His tag (FLAG-6His for Western blots), expressed in E. coli WG170 (PutP-A-), intact cells
Assay: inhibition of […]-L-proline uptake into E. coli WG170 expressing HpPutP, Dixon plot
Format: cell-based

T1 sequence (B6JPE8 1-496): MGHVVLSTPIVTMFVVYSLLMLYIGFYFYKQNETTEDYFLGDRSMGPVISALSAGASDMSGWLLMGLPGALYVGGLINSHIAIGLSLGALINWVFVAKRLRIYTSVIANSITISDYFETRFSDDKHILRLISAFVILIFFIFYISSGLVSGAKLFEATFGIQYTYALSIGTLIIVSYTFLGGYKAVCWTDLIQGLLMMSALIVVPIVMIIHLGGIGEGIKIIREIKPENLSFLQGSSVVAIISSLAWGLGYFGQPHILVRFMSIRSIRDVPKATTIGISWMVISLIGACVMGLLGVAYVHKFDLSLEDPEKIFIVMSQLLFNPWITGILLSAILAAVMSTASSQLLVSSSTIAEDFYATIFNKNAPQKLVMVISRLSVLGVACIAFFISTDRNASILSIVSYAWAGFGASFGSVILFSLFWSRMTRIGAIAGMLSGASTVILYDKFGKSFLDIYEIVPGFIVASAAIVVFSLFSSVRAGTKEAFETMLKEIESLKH

With `O=C(O)C1C=CCN1` (racemic) [DHP, 3,4-dehydro-D,L-proline] as the molecule, how does the Ki read?
Its Ki is 5.7 ± 0.9 µM.

For `O=C(O)[C@@H]1CCN1` [AZC, L-azetidine-2-carboxylic acid], which Ki is on record?
The Ki was 44.2 ± 6.3 µM.
